{"source": "paper PMC11883000", "about": "“Structure-function relationship of ASH1L and histone H3K36 and H3K4 methylation” (Nature Communications, 2025)", "key": {"mouse ES cells [1]": {"system": "mouse ES cells", "experiment": "qPCR of gene expression in mouse ES cells, RA-induced differentiation", "assay_type": "cell-based", "conditions": "for HoxA9 relative expression / Neurog2 relative expression / Olig1 relative expression / Runx1 relative expression: + RA 2 days, qPCR", "procedure": "J1 ESCs were cultured feeder free on 0.1% gelatin-coated plates in ESC culture medium (Dulbecco’s modified Eagle’s medium (Hi-glucose), supplemented with 15% fetal bovine serum (Corning), non-essential amino acids, L-glutamine, β-mercaptoethanol, 1% penicillin/streptomycin, sodium pyruvate and 1000 U/mL leukemia inhibitory factor (LIF) (Ebioscience, 34-8521-82). For embryoid body formation, mouse ES cells were dissociated from gelatin-coated plates and seeded on non-adherent cell culture dishes (Greiner) at a density of 1 × 10^5 cells/mL in 10 mL of differentiation medium (ESC culture medium without LIF). Media was exchanged every 48 h and cells were collected at indicated time course. For neuronal differentiation, cells were plated on gelatin-coated plates at a density of 1×10^4 cells/cm^2 in ESC culture medium. The following day, medium was exchanged to differentiation medium +1 μM retinoic acid (RA) (Sigma) to induce differentiation. Medium was exchanged every 48 h for indicated time course.\nTotal RNA was extracted with RNeasy Mini Kit (QIAGEN) and reverse transcribed using Superscript III Reverse Transcriptase (Life Technologies). qPCR analysis was performed using Brilliant III Ultra Fast SYBR Green QPCR Master Mix (Agilent Technologies). Gene expression data were normalized against Hprt/Gapdh and represented as fold change relative to the control. The relative expression values are shown as mean ± S.D. For ChIP-qPCR, chromatin occupancy was calculated as the ratio of the amount of immunoprecipitated DNA to that of the input sample (% input).\nCRISPR/Cas9 mediated editing was performed essentially as described. The designed gRNA ([…]) was cloned into the pSpCas9(BB)-2A-GFP (PX458) plasmid (a gift from Feng Zhang) and miniprepped using standard DNA miniprep procedures (Qiagen). J1 mES cells were transfected with sgRNAs or empty vector with Lipofectamine 2000 (ThermoFisher). Transfected cells were isolated by FACS at the Mount Sinai Flow Cytometry Core facility, and a single cell was plated per well in 96-well plates. Cells were cultured for 2-3 weeks until single colonies were visible. Cells were harvested and DNA was extracted using the QuickExtract solution (Epibio). PCR was performed using the following primers: Ash1l, F:TAGAAAGTCTGCACGGGCG, R:[…], Nestin, F:[…], R:[…], HoxA9, F:[…], R: […], Pax6, F:[…], R:[…], Gata4, F: […], R: […], Sox7, F:[…], R:[…], Pou5f1, F:[…], R:CAGGGCTTTCATGTCCTGG, Brachyury, F:GAGAGCGCAGGGAAGAGC, R:[…], Nkx2-5, F:[…], R:[…]."}, "[2]": {"system": "Meis2 enhancer and promoter sites", "experiment": "ChIP-qPCR of Ash1l occupancy at Meis2 promoter and enhancers", "assay_type": "cell-based, mouse", "conditions": "for Ash1l occupancy, Meis2 Enh 1 / Ash1l occupancy, Meis2 Enh 2 / Ash1l occupancy, Meis2 Enh 3 / Ash1l occupancy, Meis2 promoter: Ash1l ChIP, + RA", "procedure": "J1 ESCs were cultured feeder free on 0.1% gelatin-coated plates in ESC culture medium (Dulbecco’s modified Eagle’s medium (Hi-glucose), supplemented with 15% fetal bovine serum (Corning), non-essential amino acids, L-glutamine, β-mercaptoethanol, 1% penicillin/streptomycin, sodium pyruvate and 1000 U/mL leukemia inhibitory factor (LIF) (Ebioscience, 34-8521-82). For embryoid body formation, mouse ES cells were dissociated from gelatin-coated plates and seeded on non-adherent cell culture dishes (Greiner) at a density of 1 × 10^5 cells/mL in 10 mL of differentiation medium (ESC culture medium without LIF). Media was exchanged every 48 h and cells were collected at indicated time course. For neuronal differentiation, cells were plated on gelatin-coated plates at a density of 1×10^4 cells/cm^2 in ESC culture medium. The following day, medium was exchanged to differentiation medium +1 μM retinoic acid (RA) (Sigma) to induce differentiation. Medium was exchanged every 48 h for indicated time course. Total RNA was extracted with RNeasy Mini Kit (QIAGEN) and reverse transcribed using Superscript III Reverse Transcriptase (Life Technologies). qPCR analysis was performed using Brilliant III Ultra Fast SYBR Green QPCR Master Mix (Agilent Technologies). Gene expression data were normalized against Hprt/Gapdh and represented as fold change relative to the control. The relative expression values are shown as mean ± S.D. For ChIP-qPCR, chromatin occupancy was calculated as the ratio of the amount of immunoprecipitated DNA to that of the input sample (% input)."}, "mouse ES cells [3]": {"system": "mouse ES cells", "experiment": "RNA-seq analysis of differentiated mouse ES cells", "assay_type": "cell-based", "conditions": "RNA-seq data of ref 19", "procedure": "RNA-seq data reported by Yin et al.[19] was analyzed to compare RNA from undifferentiated mouse ES cells to RNA from mouse ES cells differentiated under various conditions, as described in Fig. 1. Reads were filtered using Trimmomatic v0.40 and mapped to the mouse reference genome (mm9) by TopHat (version 2.0.10). Fragments were enumerated to the UCSC reference transcriptome using the hseq-count function from the HTSeq package (version 0.6.0). Genes with <5 fragments were filtered out and gene expression changes (FC > 1.5, FDR < 0.01) were analyzed using DESeq2 (v1.42.1), with undifferentiated cells as controls. Heatmaps were generated using either the ggplot2 or pheatmap packages with z-score normalization.\nSupplementary Figure 1. Analysis of RNA-seq data reported by Yin et al. (ref. 19),\ncomparing RNA from undifferentiated mouse ES cells to RNA from mouse ES cells\ndifferentiated under multiple conditions (see Figure 1). Gene expression changes (FC >\n1.5, FDR < 0.01 ) in 4-day RA differentiated cells were identified using DESeq2, with\nundifferentiated cells as controls.\nafter RA treatment. Related to Figure 1.\n(1 picture or pasted object on this page, not shown here)"}, "Ash1l": {"system": "Ash1l", "experiment": "Western blot of Ash1l protein expression level", "assay_type": "cell-based, mouse", "conditions": "retinoic acid for 6 days"}}, "data": [{"compound": "CC1=C(/C=C/C(C)=C/C=C/C(C)=C/C(=O)O)C(C)(C)CCC1", "note": "[RA, retinoic acid]", "values": [{"measurement": "HoxA9 relative expression", "setting": "mouse ES cells [1]; WT mES cells, replicate 1", "value": 83.8652}, {"measurement": "Neurog2 relative expression", "setting": "mouse ES cells [1]; WT mES cells, replicate 1", "value": 4.681}, {"measurement": "Olig1 relative expression", "setting": "mouse ES cells [1]; WT mES cells, replicate 1", "value": 5.04}, {"measurement": "Runx1 relative expression", "setting": "mouse ES cells [1]; WT mES cells, replicate 1", "value": 31.4139}, {"measurement": "HoxA9 relative expression", "setting": "mouse ES cells [1]; WT mES cells, replicate 2", "value": 95.0095}, {"measurement": "Neurog2 relative expression", "setting": "mouse ES cells [1]; WT mES cells, replicate 2", "value": 6.712}, {"measurement": "Olig1 relative expression", "setting": "mouse ES cells [1]; WT mES cells, replicate 2", "value": 5.327}, {"measurement": "Runx1 relative expression", "setting": "mouse ES cells [1]; WT mES cells, replicate 2", "value": 47.9458}, {"measurement": "HoxA9 relative expression", "setting": "mouse ES cells [1]; WT mES cells, replicate 3", "value": 128.89}, {"measurement": "Neurog2 relative expression", "setting": "mouse ES cells [1]; WT mES cells, replicate 3", "value": 11.2096}, {"measurement": "Olig1 relative expression", "setting": "mouse ES cells [1]; WT mES cells, replicate 3", "value": 5.4768}, {"measurement": "Runx1 relative expression", "setting": "mouse ES cells [1]; WT mES cells, replicate 3", "value": 42.0296}, {"measurement": "transcriptional expression of Ash1l", "setting": "mouse ES cells [1]; qPCR time course, RA-induced differentiation", "value": "dramatic and time-dependent increase"}, {"measurement": "expression of HoxA9, Runx1, Neurog2, and Olig1 in CRISPR/Cas9 edited B7 clone", "setting": "mouse ES cells [1]; retinoic acid, two days", "value": "altered expression"}, {"measurement": "HoxA9 relative expression", "setting": "mouse ES cells [1]; ΔAsh1l B7 clone, replicate 1", "value": 9.646}, {"measurement": "Neurog2 relative expression", "setting": "mouse ES cells [1]; ΔAsh1l B7 clone, replicate 1", "value": 28.3773}, {"measurement": "Olig1 relative expression", "setting": "mouse ES cells [1]; ΔAsh1l B7 clone, replicate 1", "value": 3.982}, {"measurement": "Runx1 relative expression", "setting": "mouse ES cells [1]; ΔAsh1l B7 clone, replicate 1", "value": 2.976}, {"measurement": "HoxA9 relative expression", "setting": "mouse ES cells [1]; ΔAsh1l B7 clone, replicate 2", "value": 8.282}, {"measurement": "Neurog2 relative expression", "setting": "mouse ES cells [1]; ΔAsh1l B7 clone, replicate 2", "value": 24.5333}, {"measurement": "Olig1 relative expression", "setting": "mouse ES cells [1]; ΔAsh1l B7 clone, replicate 2", "value": 4.037}, {"measurement": "Runx1 relative expression", "setting": "mouse ES cells [1]; ΔAsh1l B7 clone, replicate 2", "value": 2.4005}, {"measurement": "HoxA9 relative expression", "setting": "mouse ES cells [1]; ΔAsh1l B7 clone, replicate 3", "value": 11.0043}, {"measurement": "Neurog2 relative expression", "setting": "mouse ES cells [1]; ΔAsh1l B7 clone, replicate 3", "value": 29.378}, {"measurement": "Olig1 relative expression", "setting": "mouse ES cells [1]; ΔAsh1l B7 clone, replicate 3", "value": 4.238}, {"measurement": "Runx1 relative expression", "setting": "mouse ES cells [1]; ΔAsh1l B7 clone, replicate 3", "value": 2.591}, {"measurement": "Ash1l occupancy, Meis2 Enh 1", "setting": "[2]; replicate 1", "value": 0.01897, "unit": "% input"}, {"measurement": "Ash1l occupancy, Meis2 Enh 2", "setting": "[2]; replicate 1", "value": 0.04268, "unit": "% input"}, {"measurement": "Ash1l occupancy, Meis2 Enh 3", "setting": "[2]; replicate 1", "value": 0.02225, "unit": "% input"}, {"measurement": "Ash1l occupancy, Meis2 promoter", "setting": "[2]; replicate 1", "value": 0.06078, "unit": "% input"}, {"measurement": "Ash1l occupancy, Meis2 Enh 1", "setting": "[2]; replicate 2", "value": 0.02319, "unit": "% input"}, {"measurement": "Ash1l occupancy, Meis2 Enh 2", "setting": "[2]; replicate 2", "value": 0.04358, "unit": "% input"}, {"measurement": "Ash1l occupancy, Meis2 Enh 3", "setting": "[2]; replicate 2", "value": 0.02683, "unit": "% input"}, {"measurement": "Ash1l occupancy, Meis2 promoter", "setting": "[2]; replicate 2", "value": 0.06121, "unit": "% input"}, {"measurement": "Ash1l occupancy, Meis2 Enh 1", "setting": "[2]; replicate 3", "value": 0.01327, "unit": "% input"}, {"measurement": "Ash1l occupancy, Meis2 Enh 2", "setting": "[2]; replicate 3", "value": 0.04413, "unit": "% input"}, {"measurement": "Ash1l occupancy, Meis2 Enh 3", "setting": "[2]; replicate 3", "value": 0.02442, "unit": "% input"}, {"measurement": "Ash1l occupancy, Meis2 promoter", "setting": "[2]; replicate 3", "value": 0.05366, "unit": "% input"}, {"measurement": "Ash1l recruitment to promoter and enhancer sites of Meis2", "setting": "[2]; RA-induced ESC differentiation, ChIP-qPCR", "value": "recruited to promoter and enhancer sites"}, {"measurement": "Ash1l expression upregulation", "setting": "mouse ES cells [3]; 4 days RA differentiation, FDR < 0.01, vs undifferentiated", "value": 1.96, "unit": "fold"}, {"measurement": "expression of Nsd1, all Mll family genes and several Plc genes (Ezh1, Ring1, Cbx7/8)", "setting": "mouse ES cells [3]; RA differentiation", "value": "noticeably up-regulated"}, {"measurement": "expression of Setd2, BRD2/3/4 and Ezh2", "setting": "mouse ES cells [3]; RA differentiation", "value": "down-regulated"}, {"measurement": "Ash1l protein expression level", "setting": "Ash1l", "value": "highest"}]}]}
